Broadly, the IC50 is the concentration needed to halve the response being measured.

Experiment [1] has as its target KRas(G12V) (Homo sapiens (Human), UniProt P01116, G12V). Briefly: KRas(G12V) GDP HTRF (BODIPY-GDP exchange TR-FRET). Format: biochemical.
In experiment [2] the target is KRas (Homo sapiens (Human), UniProt P01116). Briefly: KRas GDP HTRF (BODIPY-GDP exchange TR-FRET). Format: biochemical. On the procedure: KRAS Biochemical Assay—BODIPY-GDP Exchange TR-FRET. Biochemical compound potencies were assessed by evaluating inhibition of SOS1-mediated nucleotide exchange in KRAS G12D. The SOS1-promoted exchange of fluorescently-labeled GDP (BODIPY-GDP) was monitored by time-resolved fluorescence resonance energy transfer (TR-FRET). Compounds solubilized in DMSO were dispensed as concentration series into 384-well white assay plates. […] The reaction was initiated with the addition of 5 μL of 3 nM recombinant human SOS1 and 300 nM BODIPY-GDP in assay buffer. After a 60-minute incubation, the fluorescence was measured with excitation at 337 nm and emission at 490 and 520 nm. The TR-FRET ratio was determined as the fluorescence at 520 nm divided by the fluorescence at 490 nm multiplied by 10,000. […] The normalized TR-FRET results were plotted against compound concentration, and the data fit to a 4-parameter Hill equation to determine the IC50 values.
(In general: Time-resolved FRET reads energy transfer from a long-lived donor to a nearby acceptor.)

KRas(G12V), sequence (P01116-2 other isoform, or with tags, fused parts or gaps G12V): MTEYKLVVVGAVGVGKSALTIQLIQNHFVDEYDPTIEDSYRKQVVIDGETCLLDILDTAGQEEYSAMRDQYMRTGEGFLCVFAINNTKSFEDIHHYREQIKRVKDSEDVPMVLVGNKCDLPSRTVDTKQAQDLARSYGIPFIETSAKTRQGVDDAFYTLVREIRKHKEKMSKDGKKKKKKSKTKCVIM
KRas, sequence (P01116-2 other isoform, or with tags, fused parts or gaps): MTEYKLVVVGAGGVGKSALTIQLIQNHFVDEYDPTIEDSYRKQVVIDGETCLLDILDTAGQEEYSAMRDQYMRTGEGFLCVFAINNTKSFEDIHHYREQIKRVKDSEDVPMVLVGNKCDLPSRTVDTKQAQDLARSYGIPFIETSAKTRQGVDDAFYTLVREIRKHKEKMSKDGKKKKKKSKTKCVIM

As for `Cc1cc(N)nc(-c2cc3ncnc4c3c(c2Cl)OCCN4Cc2cc(F)cnc2N)c1C(F)(F)F` [Example 31, 6-(4-((2-amino-5-fluoropyridin-3-yl)methyl)-8-chloro-5,6-dihydro-4H-[1,4]oxazepino[5,6,7-de]quinazolin-9-yl)-4-methyl-5-(trifluoromethyl)pyridin-2-amine], the values for the IC50 in experiment [1] and in experiment [2] were 440 nM and 2800 nM, respectively.

In the case of `Cc1cc(N)nc(-c2cc3ncnc4c3c(c2Cl)OCCN4Cc2cccnc2)c1C(F)(F)F` [Example 46, 6-(8-chloro-4-(pyridin-3-ylmethyl)-5,6-dihydro-4H-[1,4]oxazepino[5,6,7-de]quinazolin-9-yl)-4-methyl-5-(trifluoromethyl)pyridin-2-amine], the IC50 in experiment [1] came to 11000 nM; in experiment [2], 46000 nM.

On to `CSc1cncc(CN2CCOc3c(Cl)c(-c4nc(N)cc(C)c4C(F)(F)F)cc4ncnc2c34)c1` [Example 29, 6-(8-chloro-4-((5-(methylthio)pyridin-3-yl)methyl)-5,6-dihydro-4H-[1,4]oxazepino[5,6,7-de]quinazolin-9-yl)-4-methyl-5-(trifluoromethyl)pyridin-2-amine], for which the IC50 in experiment [1] and in experiment [2] was 7400 nM throughout.

With `Cc1cc(N)nc(-c2cc3ncnc4c3c(c2Cl)OCCN4Cc2c(C(F)F)ccnc2N)c1C(F)(F)F` [Example 57, 6-(4-((2-amino-4-(difluoromethyl)pyridin-3-yl)methyl)-8-chloro-5,6-dihydro-4H-[1,4]oxazepino[5,6,7-de]quinazolin-9-yl)-4-methyl-5-(trifluoromethyl)pyridin-2-amine], the IC50 in experiment [1] is 270 nM; in experiment [2], 2000 nM.

`Cc1cc(N)nc(-c2cc3ncnc4c3c(c2Cl)OCCN4Cc2cncc(N)c2)c1C(F)(F)F` [Example 3, 6-(4-((5-aminopyridin-3-yl)methyl)-8-chloro-5,6-dihydro-4H-[1,4]oxazepino[5,6,7-de]quinazolin-9-yl)-4-methyl-5-(trifluoromethyl)pyridin-2-amine]: the IC50 was found to be 540 nM in experiment [1] and 2900 nM in experiment [2].

`Cc1cc(N)nc(-c2c(Cl)c3c4c(nc(OC[C@@H]5CCCN5CC(F)F)nc4c2F)N([C@H](C)c2nccnc2N)CCO3)c1C(F)(F)F` (atropisomer, axis not shown) [Example 158b, 3-((R)-1-((S)-9-(6-amino-4-methyl-3-(trifluoromethyl)pyridin-2-yl)-8-chloro-2-(((S)-1-(2,2-difluoroethyl)pyrrolidin-2-yl)methoxy)-10-fluoro-5,6-dihydro-4H-[1,4]oxazepino[5,6,7-de]quinazolin-4-yl)ethyl)pyrazin-2-amine]: the IC50 in experiment [1] turned out to be 97 nM; in experiment [2], 680 nM.

Turning to `Cc1cc(N)nc(-c2c(Cl)c3c4c(nc(OC[C@@H]5CC[C@H]6COCCN65)nc4c2F)N([C@H](C)c2cncc(N)c2)CCO3)c1C(F)(F)F` (single isomer, unassigned) [Example 69a], the IC50 came to 0.11 nM in experiment [1] and 0.295 nM in experiment [2].

For `Cc1cc(N)nc(-c2cc3ncnc4c3c(c2Cl)OCCN4Cc2cc(Cl)cnc2N)c1C(F)(F)F` [Example 52, 6-[13-[(2-amino-5-chloro-3-pyridyl)methyl]-8-chloro-10-oxa-2,4,13-triazatricyclo[7.4.1.05,14]tetradeca-1,3,5(14),6,8-pentaen-7-yl]-4-methyl-5-(trifluoromethyl)pyridin-2-amine], the results for the IC50 in experiment [1] and in experiment [2] were 2400 nM and 9600 nM, respectively.

For `Cc1cc(N)nc(-c2c(Cl)c3c4c(nc(OC[C@]56CCCN5CCOC6)nc4c2F)N([C@H](C)c2cccnc2N)CCO3)c1C(F)(F)F` (atropisomer, axis not shown) [Example 128a, 6-((R)-4-((R)-1-(2-aminopyridin-3-yl)ethyl)-8-chloro-10-fluoro-2-(((R)-tetrahydro-1H-pyrrolo[2,1-c][1,4]oxazin-8a(6H)-yl)methoxy)-5,6-dihydro-4H-[1,4]oxazepino[5,6,7-de]quinazolin-9-yl)-4-methyl-5-(trifluoromethyl)pyridin-2-amine], the IC50 in experiment [1] is 0.09 nM; in experiment [2] it was 0.149 nM.

Regarding `Cc1cc(N)nc(-c2c(Cl)c3c4c(nc(OC[C@@H]5CCCN5CC(F)F)nc4c2F)N([C@H](C)c2cncnc2N)CCO3)c1C(F)(F)F` (atropisomer, axis not shown) [Example 103a, 5-((R)-1-((R)-9-(6-amino-4-methyl-3-(trifluoromethyl)pyridin-2-yl)-8-chloro-2-(((S)-1-(2,2-difluoroethyl)pyrrolidin-2-yl)methoxy)-10-fluoro-5,6-dihydro-4H-[1,4]oxazepino[5,6,7-de]quinazolin-4-yl)ethyl)pyrimidin-4-amine], inhibition in experiment [2] was half-maximal at 1.13 nM (IC50).

Regarding `Cc1cc(N)nc(-c2cc3ncnc4c3c(c2Cl)OCCN4Cc2ccnnc2N)c1C(F)(F)F` [Example 56, 4-((9-(6-amino-4-methyl-3-(trifluoromethyl)pyridin-2-yl)-8-chloro-5,6-dihydro-4H-[1,4]oxazepino[5,6,7-de]quinazolin-4-yl)methyl)pyridazin-3-amine], the IC50 turned out to be 22 nM in experiment [1] and 160 nM in experiment [2].

`Cc1cc(N)nc(-c2c(Cl)c3c4c(nc(OC[C@H]5CC[C@@H]6CN(CC(F)(F)F)CCN56)nc4c2F)N([C@H](C)c2cccnc2N)CCO3)c1C(F)(F)F` (atropisomer, axis not shown; (aR)) [Example 129b, 6-((R)-4-((R)-1-(2-aminopyridin-3-yl)ethyl)-8-chloro-10-fluoro-2-(((6R,8aR)-2-(2,2,2-trifluoroethyl)octahydropyrrolo[1,2-a]pyrazin-6-yl)methoxy)-5,6-dihydro-4H-[1,4]oxazepino[5,6,7-de]quinazolin-9-yl)-4-methyl-5-(trifluoromethyl)pyridin-2-amine]: the IC50 worked out at 0.32 nM in experiment [1] and 0.39 nM in experiment [2].

With `CN1CCOc2c(Cl)c(-c3c(F)ccc4cnn(C)c34)cc3nc(OC[C@@]45CCCN4C[C@H](F)C5)nc1c23` [Example 8, 8-chloro-9-(6-fluoro-1-methyl-1H-indazol-7-yl)-2-(((2R,7aS)-2-fluorotetrahydro-1H-pyrrolizin-7a(5H)-yl)methoxy)-4-methyl-5,6-dihydro-4H-[1,4]oxazepino[5,6,7-de]quinazoline], the figures for the IC50 in experiment [1] and in experiment [2] were 810 nM and 3900 nM, respectively.

As for `Cc1cc(N)nc(-c2c(Cl)c3c4c(ncnc4c2F)N([C@H](C)c2cccnc2N)CCO3)c1C(F)(F)F` (atropisomer, axis not shown) [Example 53b, 6-((S)-4-((R)-1-(2-aminopyridin-3-yl)ethyl)-8-chloro-10-fluoro-5,6-dihydro-4H-[1,4]oxazepino[5,6,7-de]quinazolin-9-yl)-4-methyl-5-(trifluoromethyl)pyridin-2-amine], the results for the IC50 in experiment [1] and in experiment [2] were 600 nM and 2900 nM, respectively.

`Cc1cc(N)nc(-c2c(Cl)c3c4c(nc(OC[C@@H]5COCCN5)nc4c2F)N([C@H](C)c2cccnc2N)CCO3)c1C(F)(F)F` (atropisomer, axis not shown) [Example 96, 6-((R)-4-((R)-1-(2-aminopyridin-3-yl)ethyl)-8-chloro-10-fluoro-2-(((S)-morpholin-3-yl)methoxy)-5,6-dihydro-4H-[1,4]oxazepino[5,6,7-de]quinazolin-9-yl)-4-methyl-5-(trifluoromethyl)pyridin-2-amine]: the IC50 in experiment [1] stood at 0.08 nM; in experiment [2], 0.299 nM.

Values taken from patent US20240383915A1, “OXAZEPINE COMPOUNDS AND USES THEREOF IN THE TREATMENT OF CANCER” (Genentech, Inc., priority 2021, published 2024).
